Measurements reported in patent US4794124A, “Therapeutic composition for diabetic complications” (priority 1985, dated 1988).

Key:
diabetic rats [1] = experiment: Clinical serum chemistry values at week 11 in streptozotocin-induced diabetic rats; format: in vivo, male SD rats; details: 400 mg/kg/day oral
Description: (§1) The effects of oral administration of cysteine in diabetic rats were investigated.
(§2) A second group received tap water similarly.
(§3) Blood glucose was determined 2 days and 11 weeks after administration of streptozotocin to confirm that the rats were in hyperglycemic condition. Further, body weight was determined periodically during the study period. After 11 weeks, the blood was withdrawn from the abdominal aorta for clinical serum chemical examination. Moreover, to monitor the cataract supervening in diabetes, the rat crystalline lens was periodically examined using a slit lamp.

[2] = Time course of body weight in streptozotocin-induced diabetic rats; format: in vivo, male SD rats; details: long-term repeated administration, 400 mg/kg/day oral
Description: as §1, §2, §3

rat crystalline lens = experiment: Progression of cataract in streptozotocin-induced diabetic rats (slit lamp, 7 stages); format: in vivo, male SD rats; details: 400 mg/kg/day oral
Description: as §2, §3
The progression of cataract was evaluated on the scale of the following 7 stages up to mature cataract.
0: No lens opacity at all
I: Slight opacity of the lens epithelium or small vacuoles in the equatorial region.
II: Vacuoles multiplying and merging to spread into the cortex.
III: The vacuoles pervading most of the cortex have begun to disappear.
IV: The majority of vacuoles have disappeared and the whole cortex is translucent.
V: Opacity of the lens nucleus.
VI: Opacity of the whole lens (mature cataract)
Then, cataract which is a diabetic complication ready to develop in such diabetic animal models was studied by monitoring the rats for 11 weeks.
The bar graphs in FIG. 1(a) through (f) show the time course of cataract stages. […]

diabetic rats [3] = experiment: Blood glucose in streptozotocin-induced diabetic rats; format: in vivo, male SD rats; details: cysteine 400 mg/kg/day oral, n = 8-10, normal 220 ± 20
Description: as §1, §2, §3

lens sorbitol = experiment: Sorbitol content of the lens in streptozotocin-induced diabetic rats; details: for Sorbitol content of the lens: n = 4-5
Description: Using male SD rats weighing about 100 g, experimental diabetes was induced by injecting 70 mg/kg of streptozotocin into the caudal vein.
The rats were divided into 2 groups of 10 individuals. A first group of rats were given a 10% aqueous solution of cysteine in a volume of 0.2 ml/100 g body weight twice daily (cysteine 400 mg/kg/day) by gastric gavage beginning the day before administration of streptozotocin. This group is referred to as the cysteine-treated group. A second group received tap water similarly. This group is referred to as the control group.

N[C@@H](CS)C(=O)O [cysteine]
Serum chemical parameters (overall) (diabetic rats [1]): close to the normal values
Total bilirubin (diabetic rats [1]; n = 8-10, normal 0.2 ± 0.0, control 0.43 ± 0.23): 0.28 ± 0.18 mg/dL
Uric acid (diabetic rats [1]; n = 8-10, normal 1.8 ± 0.4, control 2.5 ± 2.5): 1.5 ± 0.5 mg/dL
γ-GTP (diabetic rats [1]; n = 8-10, normal 2.4 ± 2.0, control 42.9 ± 31.3): 13.4 ± 7.2 U/L
Lipid peroxide (diabetic rats [1]; n = 8-10, normal 3.95 ± 0.53, control 5.40 ± 0.68): 4.48 ± 0.56 nmol/dL
ALP (diabetic rats [1]; n = 8-10, normal 48 ± 8, control 83 ± 25): 68 ± 26 KAU
Total cholesterol (diabetic rats [1]; n = 8-10, normal 51 ± 6, control 175 ± 76): 118 ± 57 mg/dL
GPT (diabetic rats [1]; n = 8-10, normal 61 ± 27, control 450 ± 320): 311 ± 184 U/L
Neutral lipid (diabetic rats [1]; n = 8-10, normal 90 ± 25, control 1437 ± 858): 645 ± 605 mg/dL
GOT (diabetic rats [1]; n = 8-10, normal 102 ± 42, control 952 ± 1038): 495 ± 358 U/L
β-lipoprotein (diabetic rats [1]; n = 8-10, normal 112 ± 13, control 493 ± 233): 299 ± 173 mg/dL
LAP (diabetic rats [1]; n = 8-10, normal 199 ± 15, control 297 ± 78): 234 ± 66 GRU
TTT (diabetic rats [1]; thymol turbidity test, n = 8-10, normal 0.15 ± 0.05, control 3.94 ± 3.88): 1.03 ± 0.90 U
ZST (diabetic rats [1]; zinc sulfate test, n = 8-10, normal 1.2 ± 0.1, control 6.2 ± 4.8): 2.6 ± 1.3 U
Effect on body weight gain in diabetic rats [2]: did not affect the body weight gain
Progress of cataract compared with the control group (rat crystalline lens; any observation period (2, 4, 6, 8, 10, 11 weeks), FIG. 1): the progress of cataract was inhibited
Effect on progression of cataract (cumulative variance analysis) (rat crystalline lens; p<0.0001 vs control): significant retarding effect on the progression of cataract
Blood glucose (diabetic rats [3]; after 11 weeks, control 721 ± 75): 767 ± 77 mg/dL
Blood glucose (diabetic rats [3]; after 2 days, control 521 ± 78): 559 ± 99 mg/dL
Accumulation of sorbitol in the lens, cysteine-treated vs control group (lens sorbitol; 2 and 3 weeks after streptozotocin): no significant difference
Sorbitol content of the lens (lens sorbitol; after 2 weeks, control 0.996 ± 0.286): 1.056 ± 0.166 μmole/lens
Sorbitol content of the lens (lens sorbitol; after 3 weeks, control 1.186 ± 0.164): 1.025 ± 0.031 μmole/lens
